Data: ChEMBL document CHEMBL2346598, “Synthesis and pharmacological characterization of 2-(acylamino)thiophene derivatives as metabolically stable, orally effective, positive allosteric modulators of the GABAB receptor” (J Med Chem, 2013)
pEC50, pIC50: −log10 of the molar value. The source made the active and inactive calls. No cut-off for these calls is given here.

Legend:
[1] = tested on: Mus musculus; experiment: Hypnotic effect in DBA mouse assessed as reduction in baclofen-induced onset of loss of righting reflex over 10 mg/kg, ip incubated for 30 mins prior to baclofen-challenge relative to vehicle-treated control; assay type: functional, organism-based; design: dose 10 mg/kg
[2] = tested on: Mus musculus; experiment: Hypnotic effect in DBA mouse assessed as reduction in pentobarbital-induced onset of loss of righting reflex at 30 mg/kg, ip incubated for 30 mins prior to pentobarbital-challenge (reference value: 60.0 +/- 0.0 min); assay type: functional; details: route intraperitoneal
[3] = tested on: Mus musculus; experiment: Hypnotic effect in DBA mouse assessed as increase in baclofen-induced duration of loss of righting reflex at 100 to 300 mg/kg, ip incubated for 30 mins prior to baclofen-challenge relative to vehicle-treated control; assay type: functional, organism-based
[4] = tested on: Mus musculus; experiment: Hypnotic effect in DBA mouse assessed as increase in pentobarbital-induced duration of loss of righting reflex at 30 mg/kg, ip incubated for 30 mins prior to pentobarbital-challenge; assay type: functional; details: route intraperitoneal
[5] = tested on: Mus musculus; experiment: Hypnotic effect in DBA mouse assessed as increase in baclofen-induced duration of loss of righting reflex at 300 mg/kg, ig incubated for 30 mins prior to baclofen-challenge relative to vehicle-treated control; assay type: functional, organism-based; design: dose 300 mg/kg
[6] = tested on: Mus musculus; experiment: Hypnotic effect in DBA mouse assessed as reduction in pentobarbital-induced onset of loss of righting reflex at 100 mg/kg, ip incubated for 30 mins prior to pentobarbital-challenge (reference value: 60.0 +/- 0.0 min); assay type: functional; details: route intraperitoneal
[7] = tested on: Mus musculus; experiment: Hypnotic effect in DBA mouse assessed as potentiation of baclofen-induced loss of righting reflex at 30 mg/kg, ip incubated for 30 mins prior to baclofen-challenge; assay type: functional, organism-based; design: dose 30 mg/kg
[8] = tested on: Mus musculus; experiment: Hypnotic effect in DBA mouse assessed as increase in pentobarbital-induced duration of loss of righting reflex at 300 mg/kg, ip incubated for 30 mins prior to pentobarbital-challenge; assay type: functional; details: route intraperitoneal
[9] = tested on: Mus musculus; experiment: Hypnotic effect in DBA mouse assessed as potentiation of pentobarbital-induced loss of righting reflex at 300 mg/kg, ip incubated for 30 mins prior to pentobarbital-challenge; assay type: functional, organism-based; design: dose 300 mg/kg
[10] = tested on: Mus musculus; experiment: Hypnotic effect in DBA mouse assessed as potentiation of baclofen-induced loss of righting reflex at 300 mg/kg, ig incubated for 30 mins prior to baclofen-challenge; assay type: functional, organism-based; design: dose 300 mg/kg
[11] = tested on: Mus musculus; experiment: Hypnotic effect in DBA mouse assessed as potentiation of baclofen-induced loss of righting reflex at 300 mg/kg, ip incubated for 30 mins prior to baclofen-challenge; assay type: functional, organism-based; design: dose 300 mg/kg
[12] = tested on: Mus musculus; experiment: Hypnotic effect in DBA mouse assessed as reduction in baclofen-induced onset of loss of righting reflex at 300 mg/kg, ig incubated for 30 mins prior to baclofen-challenge relative to vehicle-treated control; assay type: functional, organism-based; design: dose 300 mg/kg
[13] = tested on: Mus musculus; experiment: Hypnotic effect in DBA mouse assessed as increase in pentobarbital-induced duration of loss of righting reflex at 100 mg/kg, ip incubated for 30 mins prior to pentobarbital-challenge; assay type: functional; details: route intraperitoneal
[14] = tested on: Mus musculus; experiment: Hypnotic effect in DBA mouse assessed as potentiation of baclofen-induced loss of righting reflex at 100 mg/kg, ip incubated for 30 mins prior to baclofen-challenge; assay type: functional, organism-based; design: dose 100 mg/kg
[15] = tested on: Mus musculus; experiment: Hypnotic effect in DBA mouse assessed as potentiation of pentobarbital-induced loss of righting reflex at 30 mg/kg, ip incubated for 30 mins prior to pentobarbital-challenge; assay type: functional, organism-based; design: dose 30 mg/kg
[16] = tested on: Mus musculus; experiment: Hypnotic effect in DBA mouse assessed as potentiation of pentobarbital-induced loss of righting reflex at 100 mg/kg, ip incubated for 30 mins prior to pentobarbital-challenge; assay type: functional, organism-based; design: dose 100 mg/kg
[17] = tested on: Mus musculus; experiment: Hypnotic effect in DBA mouse assessed as reduction in pentobarbital-induced onset of loss of righting reflex at 300 mg/kg, ip incubated for 30 mins prior to pentobarbital-challenge (reference value: 60.0 +/- 0.0 min); assay type: functional; details: route intraperitoneal
[18] = tested on: Mus musculus; experiment: Hypnotic effect in ip dosed DBA mouse assessed as increase in baclofen-induced duration of loss of righting reflex incubated for 30 mins prior to baclofen-challenge; assay type: functional, organism-based
[19] = tested on: Mus musculus; experiment: Hypnotic effect in DBA mouse assessed as potentiation of baclofen-induced loss of righting reflex at 3 mg/kg, ip incubated for 30 mins prior to baclofen-challenge; assay type: functional, organism-based; design: dose 3 mg/kg
[20] = tested on: Mus musculus; experiment: Hypnotic effect in DBA mouse assessed as potentiation of baclofen-induced loss of righting reflex at 10 mg/kg, ip incubated for 30 mins prior to baclofen-challenge; assay type: functional, organism-based; design: dose 10 mg/kg
[21] = organism: Rattus norvegicus; experiment: Positive allosteric modulation of GABAB receptor in rat cortical membranes assessed as potentiation of GABA-induced [35S]GTPgammaS binding at 10 uM after 30 mins by liquid scintillation counting analysis relative to GABA; assay type: functional, cell membranes; details: Membrane
[22] = tested on: NIH3T3; experiment: Cytotoxicity against mouse NIH/3T3 cells after 24 hrs by neutral red staining-based UV/visible spectrophotometric analysis; assay type: cell-based; details: NIH3T3, 24 h
[23] = tested on: Mus musculus; experiment: Hypnotic effect in ip dosed DBA mouse assessed as reduction in baclofen-induced onset of loss of righting reflex incubated 30 mins prior to baclofen-challenge; assay type: functional, organism-based
[24] = organism: Rattus norvegicus; experiment: Positive allosteric modulation of GABAB receptor in rat cortical membranes assessed as potentiation of GABA-induced [35S]GTPgammaS binding at 30 uM after 30 mins by liquid scintillation counting analysis relative to GABA; assay type: functional, cell membranes; details: Membrane
[25] = tested on: Plasma; experiment: Metabolic stability in mouse plasma at 5 uM after 30 mins by HPLC-MS analysis; assay type: ADME, cell-free; details: 0.5 h
[26] = (§1) Positive allosteric modulation of GABAB receptor in rat cortical membranes assessed as potentiation of GABA-induced [35S]GTPgammaS binding after 30 mins by liquid scintillation counting analysis; assay type: functional, cell membranes, Membrane
[27] = organism: Rattus norvegicus; experiment: Positive allosteric modulation of GABAB receptor in rat cortical membranes assessed as stimulation of [35S]GTPgammaS binding up to 100 uM after 30 mins by liquid scintillation counting analysis; assay type: functional, cell membranes; details: Membrane
[28] = organism: Rattus norvegicus; experiment: Positive allosteric modulation of GABAB receptor in rat cortical membranes assessed as potentiation of GABA-induced [35S]GTPgammaS binding at 25 uM after 30 mins by liquid scintillation counting analysis relative to GABA; assay type: functional, cell membranes; details: Membrane
[29] = Elimination rate constant in mouse liver microsomes at 5 uM after 60 mins by LC/MS/MS analysis; assay type: ADME, Microsome
[30] = tested on: Mus musculus; experiment: Hypnotic effect in DBA mouse assessed as potentiation of baclofen-induced loss of righting reflex at 1 mg/kg, ip incubated for 30 mins prior to baclofen-challenge; assay type: functional, organism-based; design: dose 1 mg/kg
[31] = organism: Rattus norvegicus; experiment: Positive allosteric modulation of GABAB receptor in rat cortical membranes assessed as potentiation of GABA-induced [35S]GTPgammaS binding at 2.5 uM after 30 mins by liquid scintillation counting analysis relative to GABA; assay type: functional, cell membranes; details: Membrane
[32] = Intrinsic clearance in mouse liver microsomes assessed per mg protein at 5 uM after 60 mins by LC/MS/MS analysis; assay type: ADME, Microsome; details: read-out: CLH
[33] = tested on: Mus musculus; experiment: Hypnotic effect in DBA mouse assessed as increase in baclofen-induced duration of loss of righting reflex over 10 mg/kg, ip incubated for 30 mins prior to baclofen-challenge relative to vehicle-treated control; assay type: functional, organism-based; design: dose 10 mg/kg
[34] = Drug metabolism in mouse liver microsomes at 5 uM after 60 mins by LC/MS/MS analysis; assay type: ADME, Microsome; details: read-out: Drug metabolism
[35] = tested on: Mus musculus; experiment: Hypnotic effect in DBA mouse assessed as increase in baclofen-induced duration of loss of righting reflex over 3 mg/kg, ip incubated for 30 mins prior to baclofen-challenge relative to vehicle-treated control; assay type: functional, organism-based; design: dose 3 mg/kg
[36] = tested on: Mus musculus; experiment: Hypnotic effect in ip dosed DBA mouse assessed as potentiation of pentobarbital-induced loss of righting reflex incubated for 30 mins prior to pentobarbital-challenge; assay type: functional, organism-based
[37] = Ratio of compound IC50 to COR627 IC50 for mouse NIH/3T3 cells; assay type: ADME, cell-based, NIH3T3; details: read-out: Ratio IC50
[38] = organism: Rattus norvegicus; experiment: as §1; assay type: functional, cell membranes; details: Membrane
[39] = Ratio of compound IC50 to COR628 IC50 for mouse NIH/3T3 cells; assay type: ADME, cell-based, NIH3T3; details: read-out: Ratio IC50
[40] = tested on: Mus musculus; experiment: Hypnotic effect in DBA mouse assessed as reduction in baclofen-induced onset of loss of righting reflex over 1 mg/kg, ip incubated for 30 mins prior to baclofen-challenge relative to vehicle-treated control; assay type: functional, organism-based; design: dose 1 mg/kg
[41] = tested on: Mus musculus; experiment: Hypnotic effect in DBA mouse assessed as increase in baclofen-induced duration of loss of righting reflex over 30 mg/kg, ip incubated for 30 mins prior to baclofen-challenge relative to vehicle-treated control; assay type: functional, organism-based; design: dose 30 mg/kg

SMILES | Activity [1] | Time [2] | Time [4] | Activity [5] | Time [6] | Activity [7] | Time [8] | Activity [9] | Activity [10] | Activity [11] | Activity [12] | Time [13] | Activity [14] | Activity [15] | Activity [16] | Activity [18] | Activity [19] | Activity [20] | pIC50 [22] | Activity [23] | other results
CSc1nc(NC2CCCC2)c([N+](=O)[O-])c(NC2CCCC2)n1 [GS-39783] | Active | 60 min | 0 min | Active | 60 min | Active | 2.3 min | Active | Active | Active | Active | 0 min | Active | inactive | inactive | Dose-dependent effect | inactive | Active | 4.22 | Dose-dependent effect | Activity [3]: Active; Time [17]: 57.3 min; Activity [21]: 59%
CCc1c(C)sc(NC(=O)c2ccc(Cl)cc2)c1C(=O)OC | Active | 60 min | 0 min | Active | 51.8 min | Active | 7.3 min | Active | Active | Active | Active | 4.8 min | Active | inactive | inactive | Dose-dependent effect | Active | Active | 4.23 | Dose-dependent effect | Emax [24]: 51%; Stability [25]: Unstable; pEC50 [26]: 5.95; Activity [27]: inactive; Activity [28]: 18.3%; k el at 1 h, 5 µM [29]: 0.000127 s⁻¹; Activity [30]: Active; Activity [31]: 9.2%; microsomal CLint at 5 µM [32]: 7.9 µL/min/mg; Activity [33]: Active; metabolised at 1 h, 5 µM [34]: 28%; Time [17]: 45.8 min
CCc1c(C)sc(NC(=O)c2ccc(C(F)(F)F)cc2)c1C(=O)OC | Active | 54 min | 2.3 min | Active | 45.2 min | Active | 23.3 min | Active | Active | Active | Active | 7 min | Active | inactive | inactive | Dose-dependent effect | Active | Active | 4.27 | Dose-dependent effect | Emax [24]: 60%; Stability [25]: Unstable; pEC50 [26]: 6.55; Activity [27]: inactive; Activity [28]: 27.3%; k el at 1 h, 5 µM [29]: 0.000192 s⁻¹; Activity [35]: Active; Activity [30]: Active; Activity [31]: 17.8%; Activity [36]: Dose-dependent effect; microsomal CLint at 5 µM [32]: 12 µL/min/mg; metabolised at 1 h, 5 µM [34]: 40%; Time [17]: 31.3 min
CCc1c(C)sc(NC(=O)c2ccc(C(C)(C)C)cc2)c1C(=O)OC | – | – | – | Active | – | Active | – | – | Active | Active | Active | – | Active | – | – | Dose-dependent effect | Active | Active | 3.85 | Dose-dependent effect | selectivity ratio [37]: 4; Stability [25]: Unstable; Activity [38]: inactive; Activity [27]: inactive; Activity [28]: 23.2%; selectivity ratio [39]: 4; k el at 1 h, 5 µM [29]: 0.000144 s⁻¹; Activity [40]: Active; Activity [30]: Active; Activity [31]: 19%; microsomal CLint at 5 µM [32]: 8.98 µL/min/mg; metabolised at 1 h, 5 µM [34]: 32%; Activity [41]: Active
